From US20110128610A1, “PHENOLIC CONFIGURATIONALLY LOCKED POLYENE BULK SINGLE CRYSTALS, CRYSTALLINE THIN FILMS AND WAVEGUIDES FOR ELECTRO-OPTICS AND THZ-WAVE APPLICATIONS” (priority 2008, published 2011)
Several values for one entry are separate records, joined by “and”; a condition that tells them apart may be missing. Equal values may be shown once. Read-outs that look alike come from different tables or passages of the source. Values belong to the compound of their own block, whether it stands above or below them.

Assays:
[1] = Solubility of OH1 and comparison crystals in methanol and other organic solvents; format: physicochemical
Experimental: OH1 molecules are dissolved very well in acetone and acetonitrile, and relatively good in ethanol and methanol. We selected methanol as the solvent for growing the crystals because the solubility in acetone is too high and the solute yield on decreasing the temperature is the most efficient in methanol.
The solubility of OH1 in methanol as a function of temperature is shown in FIG. 25; the solid curve is according to the Van't Hoff equation with the solution enthalpy ΔH=29±2 kJ/mol and entropy change ΔS=[…].

[2] = Solubility in water; format: physicochemical
[3] = comparison crystals from literature [13], [11, 18, 12]; cited from earlier work
[4] = comparison crystals; cited from earlier work
[5] = comparison crystals from literature; cited from earlier work
[6] = Thermal stability by thermogravimetric analysis (thermal weight-loss temperature Ti); format: physicochemical; details: TGA under nitrogen atmosphere, scan rate 10° C./min
Experimental: The thermal stability of the OH1 chromophore was investigated using thermogravimetric analysis (TGA) and differential scanning calorimetry (DSC) under nitrogen atmosphere (scan rate: 10° C./min). The melting temperature Tm is defined here as the peak position in the DSC scan. The thermal weight-loss temperature Ti estimated as the temperature at the intercept of the leading edge of the weight loss by the base line of the TGA scans. […] The high thermal stability of OH1 crystals is an advantage for applying a melt-based crystal growth that is difficult for the ionic salts, e.g. DAST that decomposes at the melting temperature.

Solubility in Acetone ([1]; 25° C.): 25.9 g/100 g solvent
Solubility in Acetone ([1]; 40° C.): 41.8 g/100 g solvent
Solubility in Acetonitrile ([1]; 25° C.): 4.32 g/100 g solvent
Solubility in Acetonitrile ([1]; 40° C.): 5.3 g/100 g solvent
Solubility in Ethanol ([1]; 25° C.): 2.34 g/100 g solvent
Solubility in Ethanol ([1]; 40° C.): 2.5 g/100 g solvent
Solubility in Methanol ([1]; methanol, 25° C.): 2.15 g/100 g solvent
solubility at 40° C. (g/100 g methanol) ([1]; methanol, 40° C.): 3.74 g/100 g methanol
Solubility in Methanol ([1]; methanol, 40° C. (Table 9)): 3.4 g/100 g solvent
Solubility in Methylene chloride ([1]; 25° C.): 1.4 g/100 g solvent
Solubility in Methylene chloride ([1]; 40° C.): 1.9 g/100 g solvent
solubility in water [2]: insoluble
Compound: CC1(C)CC(/C=C/c2ccc(O)cc2)=CC(=C(C#N)C#N)C1 [OH1, 2-(3-(4-hydroxystyryl)-5,5-dimethylcyclohex-2-enylidene)malononitrile]

Compound: CN(C)c1ccc(C=Cc2cc[n+](C)cc2)cc1.Cc1ccc(S(=O)(=O)[O-])cc1 [DAST, 4′-dimethylamino-N-methyl-4-stilbazolium tosylate]
solubility at 40° C. (g/100 g methanol) [3]: 3.73 g/100 g methanol
solubility in water [4]: highly soluble
thermal weight-loss temperature Ti [5]: 250 °C and 250/250 °C

Compound: CN(C)c1ccc(C=CC2=CC(=C(C#N)C#N)CC(C)(C)C2)cc1 [DAT2]
solubility at 40° C. (g/100 g methanol) [3]: <0.01 g/100 g methanol
solubility in water [4]: insoluble
thermal weight-loss temperature Ti [5]: 293 °C

thermal weight-loss temperature Ti [6]: 242/326 °C
Compound: CC1CC(C=Cc2ccc(O)cc2)=CC(=C(C#N)C#N)C1 (stereo not shown) [OH2, 2-(3-(4-hydroxystyryl)-5-methylcyclohex-2-enylidene)malononitrile]
